For experiment [1], the system named is SK-N-BE2c. Description: Cell viability, CellTiter Glo Assay, SK-N-BE2c. Type of experiment: cell-based. The note with it: SK-N-BE(2)-C, neuroblastoma cell line, read-out: Effect of AOH39 on Cell Viability IC50. The protocol:
(§1) The IC50's listed in Table 1 and in FIGS. 8 and 9 were determined by monitoring cell proliferation in the absence or presence of increasing concentrations of AOH39 using the Cell-Titer Glo Assay, (Promega Inc., Madison, Wis.) which monitors the energy status of the entire culture and the viability of the cell population. (https://www.promega.com/products/cell-health-and-metabolismicell-viability-assaysicelltiter_glo-luminescent-cell-viability-assay/). As the population doubles so does the quantum yield from the assay. HCC1937 is a BRCA1 defective Breast Cancer cell line; MCF7 is an ER+ breast cancer cell line; MDA-MB231 and MDA-MB468 are ER-aggressive breast cancer cell lines. SK-N-AS, SK-N-BE2c, SK-N-DZ lines are neuroblastoma cell lines and LAN5 cells are a cell line derived from a neuroblastoma bone metastasis; MCF10A is a non-malignant but immortalized breast cell line. PBMC—peripheral blood monocytes (proliferating normal cells), and MCF10A is an immortalized but non-malignant breast epithelial cell line. Referring to FIGS. 8 and 9, the X-axis is the Log of AOH39 concentration in uM, where 0 corresponds to 1 uM and 1 corresponds to 10 uM. The Y-Axis indicates cell proliferation as a percentage of identical cell cultures grown in PBS/DMSO without added AOH39.
Background: ATP-based viability assays read luminescence as a measure of living cells.

The test system of experiment [2] is HCC1937. Description: Cell viability, CellTiter Glo Assay, HCC1937. The note with it: Homo sapiens; HCC1937, BRCA1 defective breast cancer cell line; read-out: Effect of AOH39 on Cell Viability IC50. In kind it is cell-based. As to the method:
as §1

Experiment [3] relates to MCF7 cells. Description: MCF7 cell viability, MTT assay. In kind it is cell-based. The note with it: 72 hour incubation with 10 μM. The protocol: (§2) There is a precise correlation between the ability of AOH39 to inhibit the SV40 origin dependent in vitro DNA replication process and MCF7 cell viability, FIG. 4. Cell viability was determined colorimetrically using the MTT assay following a 72 hour incubation with 10 μM of AOH39. In vitro DNA replication activity was determined using the standard T-antigen and SV40 origin dependent in vitro DNA replication reaction (L. Malkas et al., Biochemistry, 29, 6362-6374 (1990)), and percent inhibition was determined relative to a reaction containing Tris-HCl/DMSO in place of AOH39 for the activity assay, and PBS/DMSO for the viability assay.

Experiment [4] has as its system PBMC. Briefly: Cell viability, CellTiter Glo Assay, PBMC. In kind it is cell-based. The note with it: peripheral blood monocytes (proliferating normal cells), read-out: Effect of AOH39 on Cell Viability IC50. The protocol:
as §1

Experiment [5] has as its system MCF7 Cell SV40 origin-dependent In Vitro DNA replication. Briefly: T-antigen and SV40 origin dependent in vitro DNA replication reaction. Type of experiment: biochemical. The note with it: for Inhibition of in vitro DNA replication: relative to reaction containing Tris-HCl/DMSO. The protocol:
In vitro DNA replication activity was determined using the standard T-antigen and SV40 origin dependent in vitro DNA replication reaction (L. Malkas et al., Biochemistry 29: 6362-6374 (1990) and percent inhibition was determined relative to a reaction containing Tris-HCl/DMSO in place of AOH39.) The reaction was started with the addition of T-antigen to the reaction mixture. Results are shown in FIG. 3, with AOH39 inhibiting replication by roughly 50% at concentrations of 5 μM and by more than 75% at 10 μM.
as §2

Experiment [6] concerns MCF10A. Briefly: Cell viability, CellTiter Glo Assay, MCF10A. Type of experiment: cell-based. The note with it: Homo sapiens, MCF-10A, non-malignant but immortalized breast cell line, read-out: Effect of AOH39 on Cell Viability IC50. The protocol:
as §1

For experiment [7], the system named is MDA-MB468. Briefly: Cell viability, CellTiter Glo Assay, MDA-MB468. Type of experiment: cell-based. The note with it: Homo sapiens, MDA-MB-468; MDA-MB468, ER- breast cancer cell line; read-out: Effect of AOH39 on Cell Viability IC50. The protocol: as §1
The subject of experiment [8] is LAN5. Description: Cell viability, CellTiter Glo Assay, LAN5. In kind it is cell-based. The note with it: LA-N-5; LAN5, neuroblastoma bone metastasis cell line; read-out: Effect of AOH39 on Cell Viability IC50. As to the method:
as §1

Experiment [9] has as its system SK-N-AS. Description: Cell viability, CellTiter Glo Assay, SK-N-AS. Type of experiment: cell-based. The note with it: Homo sapiens, neuroblastoma cell line, read-out: Effect of AOH39 on Cell Viability IC50. The protocol:
as §1

For experiment [10], the system named is MDA-MB231. Briefly: Cell viability, CellTiter Glo Assay, MDA-MB231. In kind it is cell-based. The note with it: Homo sapiens, MDA-MB-231; MDA-MB231, ER- breast cancer cell line; read-out: Effect of AOH39 on Cell Viability IC50. As to the method:
as §1

For experiment [11], the system named is SK-N-DZ. Briefly: Cell viability, CellTiter Glo Assay, SK-N-DZ. In kind it is cell-based. The note with it: Homo sapiens, neuroblastoma cell line, read-out: Effect of AOH39 on Cell Viability IC50. The protocol:
as §1

The test system of experiment [12] is MCF7. Briefly: Cell viability, CellTiter Glo Assay, MCF7. The note with it: Homo sapiens; MCF7, ER+ breast cancer cell line; read-out: Effect of AOH39 on Cell Viability IC50. In kind it is cell-based. The protocol: as §1

Each structure is given as a SMILES string.

As a reminder, the IC50 is the concentration at which inhibition is half-maximal.

With `O=C(CNC(=O)c1cccc2ccccc12)Nc1ccccc1Cc1ccccc1` [AOH39], the IC50 in [1] was 2.9 µM; in experiment [2], 2.2 µM; in experiment [4], 13.2 µM; in [6] it was 6.2 µM; in [7] it was 3.3 µM; in [8], 1.2 µM. For the same compound, the half-maximal inhibitory concentration (IC50) in experiment [9] was 2.2 µM; in experiment [10], 1 µM; in experiment [11] it was 1.7 µM; in [12], 3.1 µM. The “MCF7 cell viability (in words)” value in experiment [3] is on record as “significant decrease in MCF7 cell viability”. For the same compound, the figures for the “Inhibition of in vitro DNA replication” value in experiment [5] (5 μM) and in experiment [5] (10 μM) were “roughly 50%” and “more than 75%”, respectively. Also, in [5] (relative to control replication reaction containing PBS/DMSO in place of compound), the “Inhibition of DNA replication (in words)” value was “inhibited DNA replication significantly”.
